TGI and GI50 data for 15 molecules are collected here from PubChem BioAssay (NCI).

Some test systems named below: U251 CNS; UO-31 renal; TK-10 renal; SK-MEL-5 melanoma; HL-60(TB) leukemia; CCRF-CEM leukemia; COLO 205 colon; EKVX NSCLC; RXF 393 renal; NCI/ADR-RES ovarian.
What all share (assay): growth of human tumour cells (NCI), 48 h

The structures appear in SMILES notation.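 Tested at 5 concentrations; 48 h exposure; 96-well plates; endpoints linearly interpolated, else capped at highest concentration. At the GI50, growth is halved. TGI: total growth inhibition.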

In the case of `CC(=O)O[C@]12CCCCCC1C1(O)C(O)CCC[C@H]12` (some centres not stated), the TGI with U251 CNS, with UO-31 renal, with TK-10 renal, with SK-MEL-5 melanoma, in the experiment on HL-60(TB) leukemia and in the experiment on CCRF-CEM leukemia was > 100 µM throughout. Also, the TGI with COLO 205 colon, in the experiment on EKVX NSCLC and in the experiment with RXF 393 renal was > 100 µM throughout.
For the molecule `O=C1C[C@H](Sc2ccccc2)C2(OCCO2)[C@@H](Sc2ccccc2)C1`, the TGI in the experiment on U251 CNS stood at 6.76 µM; in the experiment on UO-31 renal it was 3.49 µM; in the experiment with TK-10 renal, 6.96 µM; with SK-MEL-5 melanoma it was 4.23 µM; in the experiment with CCRF-CEM leukemia, 1.76 µM; in the experiment with NCI/ADR-RES ovarian, 4.92 µM. Also, the TGI was 15.4 µM in the experiment with COLO 205 colon, 17.1 µM in the experiment on EKVX NSCLC and 4.25 µM in the experiment on RXF 393 renal.
Turning to `CCOC(=O)/C=C(\C)c1ccc(C)cc1C`, the TGI is > 100 µM in the experiment with U251 CNS; > 100 µM with UO-31 renal; > 100 µM in the experiment with TK-10 renal; > 100 µM in the experiment on SK-MEL-5 melanoma; 11.9 µM in the experiment on HL-60(TB) leukemia; > 100 µM in the experiment with CCRF-CEM leukemia. In addition, the TGI in the experiment on COLO 205 colon was > 100 µM; with EKVX NSCLC it was > 100 µM; with RXF 393 renal it was 27.7 µM.
Consider `COc1cc(C2CC(C)(Nc3ccccc3)Oc3cc4c(cc32)OCO4)cc(OC)c1OC` (configuration not stated), for which the TGI was 17.2 µM with U251 CNS; 34.2 µM with UO-31 renal; > 100 µM in the experiment on TK-10 renal; 8.01 µM in the experiment on SK-MEL-5 melanoma; 3.72 µM in the experiment on CCRF-CEM leukemia; 5.27 µM in the experiment on COLO 205 colon. Also, the TGI in the experiment with EKVX NSCLC and with RXF 393 renal was > 100 µM throughout.
Take `COc1cc(C2SCC(=O)N2c2ccc(NC(=O)c3ccc(N4C(=O)CSC4c4cc(OC)c(OC)c(OC)c4)cc3)cc2)cc(OC)c1OC` (configuration not stated): the TGI in the experiment with U251 CNS is > 100 µM; in the experiment on UO-31 renal it was > 100 µM; in the experiment with TK-10 renal it was > 100 µM; in the experiment on SK-MEL-5 melanoma, > 100 µM; in the experiment with CCRF-CEM leukemia, > 100 µM; in the experiment with NCI/ADR-RES ovarian, 70.6 µM. In addition, the TGI in the experiment with COLO 205 colon, with EKVX NSCLC and in the experiment with RXF 393 renal was > 100 µM in each case.
With `O=c1ccc2cc3ccc4cccc5ccc(c2o1)c3c45`, the TGI in the experiment on U251 CNS was 31.1 µM; with UO-31 renal, 44.9 µM; with TK-10 renal it was > 100 µM; with SK-MEL-5 melanoma, > 100 µM; in the experiment with HL-60(TB) leukemia it was > 100 µM; with CCRF-CEM leukemia, > 100 µM. Moreover, the TGI in the experiment with COLO 205 colon and with EKVX NSCLC was > 100 µM each time.
As for `Cc1cc(=O)c2c([nH]1)NS(=O)(=O)NC2=O`, the TGI in the experiment on UO-31 renal, in the experiment on TK-10 renal, in the experiment on HL-60(TB) leukemia, in the experiment with CCRF-CEM leukemia, with COLO 205 colon and in the experiment with EKVX NSCLC was > 100 µM in each case.
For `COCOc1ccc(Cn2c(=O)n(C)c(=O)c3c2ncn3C)cc1[N+](=O)[O-]`, the TGI in the experiment with U251 CNS, in the experiment with UO-31 renal, in the experiment with TK-10 renal, with HL-60(TB) leukemia, in the experiment on CCRF-CEM leukemia and in the experiment on COLO 205 colon was > 100 µM each time. Further, the TGI in the experiment on EKVX NSCLC and with RXF 393 renal was > 100 µM throughout.
For the molecule `COc1cc([N+](=O)[O-])c(OC)cc1-c1nc2sc(Cl)cn2c1/C=N/Nc1ccccn1`, the GI50 was 7.65 µM with U251 CNS; > 50 µM in the experiment with UO-31 renal; 15.6 µM in the experiment on TK-10 renal; 12.8 µM in the experiment with SK-MEL-5 melanoma; > 50 µM with CCRF-CEM leukemia; > 50 µM in the experiment on COLO 205 colon. Also, the figures for the GI50 in the experiment on EKVX NSCLC and in the experiment with RXF 393 renal were > 50 µM and 12.6 µM, respectively. For the same molecule, the TGI in the experiment on U251 CNS was 14.3 µM; in the experiment with UO-31 renal it was > 50 µM; in the experiment with TK-10 renal, > 50 µM; in the experiment on SK-MEL-5 melanoma, 36 µM; in the experiment with CCRF-CEM leukemia, > 50 µM; with COLO 205 colon it was > 50 µM. Also, the TGI with EKVX NSCLC was > 50 µM; in the experiment with RXF 393 renal, 26.2 µM.
Regarding `CC(=O)N/N=C1\NC(=O)C[C@H]2[C@@H]3CC=C4C[C@@H](OC(C)=O)CC[C@]4(C)[C@H]3CC[C@]12C`, the TGI with U251 CNS was 28.7 µM; in the experiment with UO-31 renal, > 100 µM; in the experiment on TK-10 renal it was 41.7 µM; with SK-MEL-5 melanoma it was > 100 µM; in the experiment with HL-60(TB) leukemia, > 100 µM; in the experiment on CCRF-CEM leukemia, > 100 µM. Moreover, the TGI with NCI/ADR-RES ovarian, in the experiment with COLO 205 colon and in the experiment with EKVX NSCLC was > 100 µM in each case.
As to `Cc1c(S(=O)(=O)/N=C(\N)Nc2ccc(Cl)cc2)sc2ccc(Cl)cc12`, the TGI with U251 CNS is 30.3 µM; with UO-31 renal, 35.9 µM; with TK-10 renal, 39.5 µM; in the experiment on SK-MEL-5 melanoma, > 100 µM; with HL-60(TB) leukemia, 63.5 µM; in the experiment with NCI/ADR-RES ovarian, 47.1 µM. The TGI in the experiment with COLO 205 colon was 45.9 µM; in the experiment with EKVX NSCLC, 33.4 µM; in the experiment on RXF 393 renal, > 100 µM.
Consider `C/C(CC1C2CCCC1C2)=N\NC(N)=O` (configuration not stated), for which the TGI in the experiment on U251 CNS, in the experiment with UO-31 renal, in the experiment on TK-10 renal, in the experiment with SK-MEL-5 melanoma, in the experiment with HL-60(TB) leukemia and with CCRF-CEM leukemia was > 100 µM throughout. The TGI in the experiment with NCI/ADR-RES ovarian, with COLO 205 colon and in the experiment on EKVX NSCLC was > 100 µM throughout.
With `O=[N+]([O-])/C(C(Cl)=C(Cl)Cl)=C(\Nc1cccc2cccnc12)SCc1ccccc1`, the TGI was 33.2 µM in the experiment with U251 CNS; 38.1 µM with UO-31 renal; 97.4 µM with CCRF-CEM leukemia; 51.7 µM in the experiment with NCI/ADR-RES ovarian; 33.5 µM in the experiment on COLO 205 colon; 49.1 µM with EKVX NSCLC.
For the molecule `CN(C)C(=S)S`, the TGI in the experiment with U251 CNS, in the experiment on UO-31 renal, in the experiment on TK-10 renal, in the experiment on SK-MEL-5 melanoma, with NCI/ADR-RES ovarian and in the experiment on COLO 205 colon was > 100 µM in each case. For the same molecule, the TGI in the experiment on EKVX NSCLC and with RXF 393 renal was > 100 µM throughout.
Regarding `C=CCNC(=S)/N=C/c1c(O)c2ccccc2oc1=O`, the TGI in the experiment on U251 CNS, in the experiment with UO-31 renal, in the experiment on TK-10 renal, with SK-MEL-5 melanoma, in the experiment on HL-60(TB) leukemia and with CCRF-CEM leukemia was > 100 µM throughout. Further, the values for the TGI in the experiment on COLO 205 colon, in the experiment on EKVX NSCLC and in the experiment on RXF 393 renal were > 100 µM, > 100 µM and 85.8 µM, respectively.
